Where two headings read alike, the source gives them in different places.

The source of these data is patent US20110053836A1, “USE OF DEFENSINS AGAINST TUBERCULOSIS” (priority 2008, published 2011).

Common to all, as to format: cell-based, Mycobacterium tuberculosis
In test [1] the test system is M. tuberculosis.
Test [2] relates to M. tuberculosis. The protocol: The validation of the Relative Light Unit assay (RLU) was carried out by comparing it to conventional Colony Forming Unit (CFU) assay. In this assay, the cells were exposed to the different concentrations of the peptide for 96 hours and then plated onto 7H10 plates. The plates were incubated at 37° C. for 30 days and the colonies were enumerated.
The source holds these as a separate data set.

In test [3] the test system is H37Rv expressing LUX. As to conditions: 6.25 micrograms/ml; ~0.1 OD600 and ~1.0 OD600; 96 hours.
Test [4] relates to M. tuberculosis H37Rv. As to conditions: for Fold of reduction: RLU relative to buffer control; for MIC: concentration that reduces RLU by 90% (1 log), 96 hours.
[5] abbreviates: peptide 25 micrograms/ml, buffer control 53503.
The mark [6] stands for this setting: peptide 6.25 micrograms/ml, buffer control 75380.

“SEQ ID NO: 14: plectasin variant, substitutions N5G + D9S + M13L + N17Q + A31T compared to SEQ ID NO: 2 (GFGCGGPWSEDDLQCHQHCKSIKGYKGGYCTKGGFVCKCY)”: the “Inhibition of growth by OD600” value in test [1] (6.25 micrograms/ml, T-25 flasks) is on record as “completely inhibit the growth”. Moreover, the “MIC (=MBC)” value in test [1] (confirmed by the assays of Examples 3 and 4 (CFU, OD600)) is recorded as 6.25 micrograms/ml. In addition, in test [2] (96 hours exposure, plated on 7H10, 30 days), the “MBC obtained by CFU” value came out at 6.25 micrograms/ml. Further, the “Mode of action (bactericidal)” value in test [2] (MIC by RLU equivalent to MBC by CFU) was “bactericidal”. In addition, the “Activity against early log and early stationary cells” value in test [3] is “potent activity against organisms in both early log and early stationary phases of growth”. The Fold of reduction in test [4] (peptide 25 micrograms/ml) was 49.4. This substance came in with an RLU in test [4] (setting [5]) of 1083.

As for “SEQ ID NO: 5: plectasin variant, substitution Q14F compared to SEQ ID NO: 2 (GFGCNGPWDEDDMFCHNHCKSIKGYKGGYCAKGGFVCKCY)”, the Fold of reduction in test [4] (peptide 25 micrograms/ml) turned out to be 34.1. In addition, the RLU in test [4] (setting [5]) came out at 1567.

“SEQ ID NO: 12: plectasin variant, substitutions N5S + D9S + M13L + Q14R + N17V + A31S compared to SEQ ID NO: 2 (GFGCSGPWSEDDLRCHVHCKSIKGYKGGYCSKGGFVCKCY)”: the Fold of reduction in test [4] (peptide 25 micrograms/ml) worked out at 13.7. The substance further had an RLU in test [4] (setting [5]) of 3901.

“SEQ ID NO: 15: plectasin variant, substitutions D9N + M13L + Q14R compared to SEQ ID NO: 2 (GFGCNGPWNEDDLRCHNHCKSIKGYKGGYCAKGGFVCKCY)”: the Fold of reduction in test [4] (peptide 25 micrograms/ml) turned out to be 12.9. This substance had an RLU in test [4] (setting [5]) of 4165.

For the substance “plectasin [SEQ ID NO: 2, reference compound]”, the MIC result in test [4] is “around 25 micrograms/ml”. The Fold of reduction in test [4] (peptide 25 micrograms/ml) was determined as 25.7. Further, the RLU in test [4] (setting [5]) stood at 2070.

On to “SEQ ID NO: 3: plectasin variant, substitutions Q14K + K26R compared to SEQ ID NO: 2 (GFGCNGPWDEDDMKCHNHCKSIKGYRGGYCAKGGFVCKCY)”, for which the Fold of reduction in test [4] (peptide 25 micrograms/ml) turned out to be 23.2. In test [4] (setting [5]), this substance yielded an RLU of 2310.

“SEQ ID NO: 4: plectasin variant, substitution K26R compared to SEQ ID NO: 2 (GFGCNGPWDEDDMQCHNHCKSIKGYRGGYCAKGGFVCKCY)” gave a Fold of reduction in test [4] (peptide 25 micrograms/ml) of 28.1. Further, the RLU in test [4] (setting [5]) is reported as 1903.

In test [4] (peptide 25 micrograms/ml), “SEQ ID NO: 8: plectasin variant, substitution Q14L compared to SEQ ID NO: 2 (GFGCNGPWDEDDMLCHNHCKSIKGYKGGYCAKGGFVCKCY)” had a Fold of reduction of 24.9. Moreover, the RLU in test [4] (setting [5]) is 2145.

Take “SEQ ID NO: 18: plectasin variant, substitutions D9S + Q14R + K26R compared to SEQ ID NO: 2 (GFGCNGPWSEDDMRCHNHCKSIKGYRGGYCAKGGFVCKCY)”: in test [4], the MIC was approximately 6.25 micrograms/ml. In addition, the Fold of reduction in test [4] (peptide 6.25 micrograms/ml) is on record as 9.8. In test [4] (setting [6]), this substance yielded an RLU of 7702.

“SEQ ID NO: 16: plectasin variant, substitutions D9G + Q14R + K23R compared to SEQ ID NO: 2 (GFGCNGPWGEDDMRCHNHCKSIRGYKGGYCAKGGFVCKCY)”: the Fold of reduction in test [4] (peptide 25 micrograms/ml) was 11.9. This substance returned an RLU in test [4] (setting [5]) of 4495.

For the substance “SEQ ID NO: 17: plectasin variant, substitutions D9S + M13L + Q14R + K26R compared to SEQ ID NO: 2 (GFGCNGPWSEDDLRCHNHCKSIKGYRGGYCAKGGFVCKCY)”, in test [4], the MIC was approximately 6.25 micrograms/ml. Besides, the Fold of reduction in test [4] (peptide 6.25 micrograms/ml) is given as 9.1. Moreover, the RLU in test [4] (setting [6]) is 8321.

In turn, “SEQ ID NO: 19: plectasin variant, substitutions D9S + Q14K + K26R compared to SEQ ID NO: 2 (GFGCNGPWSEDDMKCHNHCKSIKGYRGGYCAKGGFVCKCY)” returned an MIC in test [4] of approximately 6.25 micrograms/ml. For the same substance, the Fold of reduction in test [4] (peptide 6.25 micrograms/ml) was found to be 9.9. The substance also registered an RLU in test [4] (setting [6]) of 7630.

As for “SEQ ID NO: 11: plectasin variant, substitutions Q14R + K26R compared to SEQ ID NO: 2 (GFGCNGPWDEDDMRCHNHCKSIKGYRGGYCAKGGFVCKCY)”, the Fold of reduction in test [4] (peptide 25 micrograms/ml) was 14.8. In test [4] (setting [5]), this substance gave an RLU of 3604.

The substance “SEQ ID NO: 10: plectasin variant, substitutions M13K + K38R compared to SEQ ID NO: 2 (GFGCNGPWDEDDKQCHNHCKSIKGYKGGYCAKGGFVCRCY)” came in with a Fold of reduction in test [4] (peptide 25 micrograms/ml) of 46.4. Moreover, the RLU in test [4] (setting [5]) amounted to 1152.

The substance “SEQ ID NO: 20: plectasin variant, substitutions D9S + M13L + Q14K + V36L compared to SEQ ID NO: 2 (GFGCNGPWSEDDLKCHNHCKSIKGYKGGYCAKGGFLCKCY)” had an MIC in test [4] of 6.25 micrograms/ml. Further, the Fold of reduction in test [4] (peptide 6.25 micrograms/ml) amounted to 14.1. Further, the RLU in test [4] (setting [6]) stood at 5355.

On to “SEQ ID NO: 13: plectasin variant, substitutions N5G + M13L compared to SEQ ID NO: 2 (GFGCGGPWDEDDLQCHNHCKSIKGYKGGYCAKGGFVCKCY)”, for which the Fold of reduction in test [4] (peptide 25 micrograms/ml) came to 20.8. For the same substance, the RLU in test [4] (setting [5]) turned out to be 2576.

As for “SEQ ID NO: 6: plectasin variant, substitutions Q14R + K26R + K38R compared to SEQ ID NO: 2 (GFGCNGPWDEDDMRCHNHCKSIKGYRGGYCAKGGFVCRCY)”, the Fold of reduction in test [4] (peptide 25 micrograms/ml) amounted to 11.9. Also, the RLU in test [4] (setting [5]) is listed as 4483.

Turning to “SEQ ID NO: 7: plectasin variant, substitutions Q14R + K20R compared to SEQ ID NO: 2 (GFGCNGPWDEDDMRCHNHCRSIKGYKGGYCAKGGFVCKCY)”, in test [4], the MIC was found to be 6.25 micrograms/ml. Also, the Fold of reduction in test [4] (peptide 25 micrograms/ml) is reported as 40.0. In test [4] (setting [5]), this substance came in with an RLU of 1339.

As for “SEQ ID NO: 9: plectasin variant, substitutions N5R + M13V compared to SEQ ID NO: 2 (GFGCRGPWDEDDVQCHNHCKSIKGYKGGYCAKGGFVCKCY)”, the MIC in test [4] stood at 6.25 micrograms/ml. In test [4] (peptide 25 micrograms/ml), this substance yielded a Fold of reduction of 31.8. The substance further registered an RLU in test [4] (setting [5]) of 1685.
